In patent publication US9365584B2, “Thieno [2,3-B] pyridinedione activators of AMPK and therapeutic uses thereof” (Poxel, priority 2009, dated 2016):

Test system: AMPK
Assay: AMPK enzyme activity assay (Delfia technology, AMARA peptide substrate)
Assay type: biochemical
Conditions: compound at 30 μM vs AMP at 200 μM
Method: The following biological test allows the determination of the efficacy of compounds of formula (1) onto AMPK protein.
AMPK enzyme activities were assayed by using a Delfia technology. AMPK enzyme activities were carried out in microtiter plates in the presence of a synthetic peptide substrate (AMARAASAAALARRR, the “AMARA” peptide) and activators in serial dilutions. Reactions were initiated by the addition of AMPK. Enzyme activity was assayed by using an anti-phosphoserine antibody to measure the quantity of phosphate incorporated into the AMARAA.
No: Number of the molecule
Activity: Ratio between the % of control (basal activity) of compound of formula (1) at 30 μM and the % of control (basal activity) of AMP (natural substrate) at 200 μM.

Row | Molecule | Activity: Ratio between the % of control (basal activity) of compound of formula (1) at 30 μM and the % of control (basal activity) of AMP (natural substrate) at 200 μM
1 | 2,5-difluoro-3-(2-naphthyl)-5-phenyl-7H-thieno[2,3-b]pyridine-4,6-dione [No 162] | C (C≧75%)
2 | 2-chloro-5-(3-methoxyphenyl)-5-methyl-3-(p-tolyl)-7H-thieno[2,3-b]pyridine-4,6-dione [No 209] | A (0%<A<50%)
3 | 2-chloro-5-fluoro-3-(5-fluoro-2-hydroxy-phenyl)-5-phenyl-7H-thieno[2,3-b]pyridine-4,6-dione [No 221] | C (C≧75%)
4 | 2-chloro-5-methyl-3,5-bis(p-tolyl)-7H-thieno[2,3-b]pyridine-4,6-dione [No 154] | A (0%<A<50%)
5 | 5-fluoro-3-(2-naphthyl)-5-phenyl-7H-thieno[2,3-b]pyridine-4,6-dione [No 161] | C (C≧75%)
6 | CC1(c2ccccc2)C(=O)Nc2sc(Cl)c(-c3ccc4ccccc4c3O)c2C1=O (centres unmarked) [No 7, 2-chloro-3-(1-hydroxy-2-naphthyl)-5-methyl-5-phenyl-7H-thieno[2,3-b]pyridine-4,6-dione] | A (0%<A<50%)
7 | O=C1Nc2scc(-c3ccccc3)c2C(=O)C1(Cc1ccccc1)c1ccccc1 (centres unmarked) [No 10, 5-benzyl-3,5-diphenyl-7H-thieno[2,3-b]pyridine-4,6-dione] | A (0%<A<50%)
8 | CCOc1c(F)ccc(-c2c(Cl)sc3c2C(=O)C(C)(c2ccccc2)C(=O)N3)c1OC (centres unmarked) [No 12, 2-chloro-3-(3-ethoxy-4-fluoro-2-methoxy-phenyl)-5-methyl-5-phenyl-7H-thieno[2,3-b]pyridine-4,6-dione] | A (0%<A<50%)
9 | CC1(c2ccccc2)C(=O)Nc2scc(-c3ccc(F)c(F)c3O)c2C1=O (centres unmarked) [No 14, 3-(3,4-difluoro-2-hydroxy-phenyl)-5-methyl-5-phenyl-7H-thieno[2,3-b]pyridine-4,6-dione] | A (0%<A<50%)
10 | COc1ccc(C2(C)C(=O)Nc3sc(Cl)c(-c4ccc(F)cc4O)c3C2=O)cc1 (centres unmarked) [No 15, 2-chloro-3-(4-fluoro-2-hydroxy-phenyl)-5-(4-methoxy-phenyl)-5-methyl-7H-thieno[2,3-b]pyridine-4,6-dione] | A (0%<A<50%)
11 | CCc1ccc(-c2csc3c2C(=O)C(C)(c2ccccc2)C(=O)N3)c(OC)c1 (centres unmarked) [No 16, 3-(4-ethyl-2-methoxy-phenyl)-5-methyl-5-phenyl-7H-thieno[2,3-b]pyridine-4,6-dione] | A (0%<A<50%)
12 | CCOc1ccc(C2(C)C(=O)Nc3scc(-c4ccc(C)cc4F)c3C2=O)cc1 (centres unmarked) [No 17, 5-(4-ethoxyphenyl)-3-(2-fluoro-4-methyl-phenyl)-5-methyl-7H-thieno[2,3-b]pyridine-4,6-dione] | A (0%<A<50%)
13 | CC1(C)C(=O)Nc2scc(-c3ccccc3)c2C1=O [No 18, 5,5-dimethyl-3-phenyl-7H-thieno[2,3-b]pyridine-4,6-dione] | A (0%<A<50%)
14 | CCOc1ccc(C2(C)C(=O)Nc3sc(C)c(-c4ccc(F)c(C)c4O)c3C2=O)cc1 (centres unmarked) [No 19, 5-(4-ethoxyphenyl)-3-(4-fluoro-2-hydroxy-3-methyl-phenyl)-2,5-dimethyl-7H-thieno[2,3-b]pyridine-4,6-dione] | A (0%<A<50%)
15 | O=C1Nc2sc(Cl)c(-c3ccccc3)c2C(=O)C1(F)c1ccccc1 (centres unmarked) [No 20, 2-chloro-5-fluoro-3,5-diphenyl-7H-thieno[2,3-b]pyridine-4,6-dione] | C (C≧75%)
16 | CCOc1ccc(C2(C)C(=O)Nc3scc(-c4ccc(Cl)cc4OC)c3C2=O)cc1 (centres unmarked) [No 21, 3-(4-chloro-2-methoxy-phenyl)-5-(4-ethoxyphenyl)-5-methyl-7H-thieno[2,3-b]pyridine-4,6-dione] | A (0%<A<50%)
17 | CCOc1ccc(C2(C)C(=O)Nc3sc(Cl)c(-c4ccc(C)cc4F)c3C2=O)cc1 (centres unmarked) [No 22, 2-chloro-5-(4-ethoxyphenyl)-3-(2-fluoro-4-methyl-phenyl)-5-methyl-7H-thieno[2,3-b]pyridine-4,6-dione] | B (50%≦B<75%)
18 | Cc1ccc(-c2csc3c2C(=O)C(C)(c2ccc(O)cc2)C(=O)N3)c(O)c1F (centres unmarked) [No 24, 3-(3-fluoro-2-hydroxy-4-methyl-phenyl)-5-(4-hydroxy-phenyl)-5-methyl-7H-thieno[2,3-b]pyridine-4,6-dione] | A (0%<A<50%)
19 | O=C1Nc2scc(-c3ccc(F)cc3O)c2C(=O)C1(F)c1ccccc1 (centres unmarked) [No 25, 5-fluoro-3-(4-fluoro-2-hydroxy-phenyl)-5-phenyl-7H-thieno[2,3-b]pyridine-4,6-dione] | C (C≧75%)
20 | CC1(c2ccccc2)C(=O)Nc2sc(Cl)c(-c3ccccc3F)c2C1=O (centres unmarked) [No 30, 2-chloro-3-(2-fluorophenyl)-5-methyl-5-phenyl-7H-thieno[2,3-b]pyridine-4,6-dione] | A (0%<A<50%)
21 | Cc1ccc(C2(C)C(=O)Nc3sc(Cl)c(-c4ccccc4)c3C2=O)cc1 (centres unmarked) [No 31, 2-chloro-5-methyl-3-phenyl-5-(p-tolyl)-7H-thieno[2,3-b]pyridine-4,6-dione] | A (0%<A<50%)
22 | Cc1cccc(C2(C)C(=O)Nc3sc(Cl)c(-c4ccccc4)c3C2=O)c1 (centres unmarked) [No 33, 2-chloro-5-methyl-5-(m-tolyl)-3-phenyl-7H-thieno[2,3-b]pyridine-4,6-dione] | A (0%<A<50%)

Now from value to molecule:

Row | Activity: Ratio between the % of control (basal activity) of compound of formula (1) at 30 μM and the % of control (basal activity) of AMP (natural substrate) at 200 μM | Molecule
23 | A (0%<A<50%) | CC1(c2ccccc2)C(=O)Nc2scc(-c3ccc4ccccc4c3O)c2C1=O (centres unmarked) [No 8, 3-(1-hydroxy-2-naphthyl)-5-methyl-5-phenyl-7H-thieno[2,3-b]pyridine-4,6-dione]
24 | A (0%<A<50%) | O=C1Nc2scc(-c3ccccc3)c2C(=O)C1(c1ccccc1)c1ccccc1 [No 9, 3,5,5-triphenyl-7H-thieno[2,3-b]pyridine-4,6-dione]
25 | A (0%<A<50%) | CCC1(c2ccccc2)C(=O)Nc2scc(-c3ccccc3)c2C1=O (centres unmarked) [No 11, 5-ethyl-3,5-diphenyl-7H-thieno[2,3-b]pyridine-4,6-dione]
26 | A (0%<A<50%) | COc1c(-c2c(Cl)sc3c2C(=O)C(C)(c2ccccc2)C(=O)N3)ccc(F)c1F (centres unmarked) [No 13, 2-chloro-3-(3,4-difluoro-2-methoxy-phenyl)-5-methyl-5-phenyl-7H-thieno[2,3-b]pyridine-4,6-dione]
27 | A (0%<A<50%) | CCOc1ccc(C2(C)C(=O)Nc3scc(-c4ccc(C)c(F)c4O)c3C2=O)cc1 (centres unmarked) [No 23, 5-(4-ethoxyphenyl)-3-(3-fluoro-2-hydroxy-4-methyl-phenyl)-5-methyl-7H-thieno[2,3-b]pyridine-4,6-dione]
28 | A (0%<A<50%) | CC1(c2ccccc2)C(=O)Nc2sc(Cl)c(-c3ccc(F)cc3)c2C1=O (centres unmarked) [No 26, 2-chloro-3-(4-fluorophenyl)-5-methyl-5-phenyl-7H-thieno[2,3-b]pyridine-4,6-dione]
29 | A (0%<A<50%) | CC1(c2cccc(F)c2)C(=O)Nc2sc(Cl)c(-c3ccccc3)c2C1=O (centres unmarked) [No 27, 2-chloro-5-(3-fluorophenyl)-5-methyl-3-phenyl-7H-thieno[2,3-b]pyridine-4,6-dione]
30 | A (0%<A<50%) | CC1(c2ccccc2F)C(=O)Nc2sc(Cl)c(-c3ccccc3)c2C1=O (centres unmarked) [No 28, 2-chloro-5-(2-fluorophenyl)-5-methyl-3-phenyl-7H-thieno[2,3-b]pyridine-4,6-dione]
31 | C (C≧75%) | CC1(c2ccccc2)C(=O)Nc2sc(Cl)c(-c3cccc(F)c3)c2C1=O (centres unmarked) [No 29, 2-chloro-3-(3-fluorophenyl)-5-methyl-5-phenyl-7H-thieno[2,3-b]pyridine-4,6-dione]
32 | A (0%<A<50%) | CC1(c2ccc(F)cc2)C(=O)Nc2sc(Cl)c(-c3ccccc3)c2C1=O (centres unmarked) [No 32, 2-chloro-5-(4-fluorophenyl)-5-methyl-3-phenyl-7H-thieno[2,3-b]pyridine-4,6-dione]
